These results are taken from ChEMBL document CHEMBL1145525, “Discovery of antiandrogen activity of nonsteroidal scaffolds of marketed drugs” (Proc Natl Acad Sci U S A, 2007).

For assay [1], the system named is PC-3. The assay is described as follows: Cytotoxicity against human PC3 cells upto 10 uM by SRB assay. In kind it is functional, cell-based. (In SRB staining, fixed cells bind dye roughly in proportion to their protein.)
Assay [2] deals with LNCaP. The assay can be described thus: Increase in prostate specific antigen expression level in human LNCaP cells at 1 uM. In kind it is functional, cell-based.
The test system of assay [3] is LNCaP. The assay can be described thus: Reduction of prostate specific antigen expression level in human LNCaP cells at 10 uM. Type of assay: functional. Details: scale not given: the % may be the effect or the level left.
The subject of assay [4] is HeLa. The assay is described as follows: Effect on translocation of androgen receptor from cytoplasm to nucleus in human HeLa cells at 1 uM in presence of dihydrotestosterone. In kind it is functional.
For assay [5], the target named is D(2) dopamine receptor (Homo sapiens) (UniProt P14416). The assay is described as follows: Displacement of [3H]spiperone from human dopamine D2L receptor expressed in CHO FlpIn cells upto 1 uM. In kind it is cell-based. On the technique in general: Loss of bound radioactivity is the signal in a displacement assay; it reports binding, not function.
Assay [6] deals with 5-hydroxytryptamine receptor 2A (Homo sapiens) (UniProt P28223). The assay is described as follows: Displacement of [3H]ketanserin from human dopamine 5HT2A receptor expressed in CHO-K1 cells upto 1 uM. Type of assay: cell-based.
For assay [7], the target named is T1, 5-hydroxytryptamine receptor 2C (Homo sapiens) (UniProt P28335).
T1 sequence (whole entry): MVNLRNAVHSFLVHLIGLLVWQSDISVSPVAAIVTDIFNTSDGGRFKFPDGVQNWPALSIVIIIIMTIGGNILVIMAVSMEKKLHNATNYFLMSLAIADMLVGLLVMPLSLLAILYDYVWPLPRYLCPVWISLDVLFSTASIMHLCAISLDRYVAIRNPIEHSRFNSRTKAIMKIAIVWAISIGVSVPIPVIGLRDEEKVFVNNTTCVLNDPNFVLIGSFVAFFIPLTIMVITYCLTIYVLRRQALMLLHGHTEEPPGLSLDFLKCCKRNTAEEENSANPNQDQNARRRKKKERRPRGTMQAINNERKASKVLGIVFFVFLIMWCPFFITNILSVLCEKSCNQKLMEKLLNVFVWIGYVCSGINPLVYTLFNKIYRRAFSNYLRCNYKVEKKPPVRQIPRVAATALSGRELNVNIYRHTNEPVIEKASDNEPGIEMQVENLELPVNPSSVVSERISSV
The assay can be described thus: Displacement of [3H]mesulergine from human dopamine 5HT2C receptor expressed in CHO-K1 cells upto 1 uM. In kind it is cell-based.

For assay [8], the target named is T2, Androgen receptor (Homo sapiens, UniProt P10275).
T2 sequence (P10275 whole entry): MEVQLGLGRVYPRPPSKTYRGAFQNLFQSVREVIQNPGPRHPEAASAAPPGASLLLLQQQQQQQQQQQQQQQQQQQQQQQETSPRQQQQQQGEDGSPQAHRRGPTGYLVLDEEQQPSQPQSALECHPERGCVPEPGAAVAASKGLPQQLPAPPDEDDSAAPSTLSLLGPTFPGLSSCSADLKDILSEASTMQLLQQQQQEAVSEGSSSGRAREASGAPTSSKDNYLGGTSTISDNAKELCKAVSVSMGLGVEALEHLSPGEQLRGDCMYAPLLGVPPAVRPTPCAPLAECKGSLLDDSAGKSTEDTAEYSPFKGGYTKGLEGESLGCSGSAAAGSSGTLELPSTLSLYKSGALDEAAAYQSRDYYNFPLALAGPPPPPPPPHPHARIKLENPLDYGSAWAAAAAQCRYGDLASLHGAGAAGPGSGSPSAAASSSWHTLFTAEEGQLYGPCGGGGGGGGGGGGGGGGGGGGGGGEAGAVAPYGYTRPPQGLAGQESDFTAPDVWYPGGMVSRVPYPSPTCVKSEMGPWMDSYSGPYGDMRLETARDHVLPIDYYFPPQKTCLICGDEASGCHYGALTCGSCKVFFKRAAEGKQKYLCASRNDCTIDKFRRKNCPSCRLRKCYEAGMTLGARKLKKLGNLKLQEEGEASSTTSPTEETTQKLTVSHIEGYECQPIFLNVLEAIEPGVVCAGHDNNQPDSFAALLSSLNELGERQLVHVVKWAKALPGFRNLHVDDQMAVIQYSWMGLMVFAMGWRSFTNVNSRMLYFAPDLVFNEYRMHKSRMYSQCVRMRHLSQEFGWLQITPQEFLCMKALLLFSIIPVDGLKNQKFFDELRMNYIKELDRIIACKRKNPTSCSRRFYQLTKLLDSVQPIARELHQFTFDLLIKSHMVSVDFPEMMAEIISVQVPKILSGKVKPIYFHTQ
The assay can be described thus: Inhibition of wild type androgen receptor expressed in CV1 cells assessed as dihydrotestosterone-stimulated transactivation by CAT reporter gene assay. Type of assay: cell-based, CV-1. Background: A reporter such as luciferase makes a cellular process visible.

The target in assay [9] is T3, Androgen receptor (Rattus norvegicus, UniProt P15207).
T3 sequence (P15207 whole entry): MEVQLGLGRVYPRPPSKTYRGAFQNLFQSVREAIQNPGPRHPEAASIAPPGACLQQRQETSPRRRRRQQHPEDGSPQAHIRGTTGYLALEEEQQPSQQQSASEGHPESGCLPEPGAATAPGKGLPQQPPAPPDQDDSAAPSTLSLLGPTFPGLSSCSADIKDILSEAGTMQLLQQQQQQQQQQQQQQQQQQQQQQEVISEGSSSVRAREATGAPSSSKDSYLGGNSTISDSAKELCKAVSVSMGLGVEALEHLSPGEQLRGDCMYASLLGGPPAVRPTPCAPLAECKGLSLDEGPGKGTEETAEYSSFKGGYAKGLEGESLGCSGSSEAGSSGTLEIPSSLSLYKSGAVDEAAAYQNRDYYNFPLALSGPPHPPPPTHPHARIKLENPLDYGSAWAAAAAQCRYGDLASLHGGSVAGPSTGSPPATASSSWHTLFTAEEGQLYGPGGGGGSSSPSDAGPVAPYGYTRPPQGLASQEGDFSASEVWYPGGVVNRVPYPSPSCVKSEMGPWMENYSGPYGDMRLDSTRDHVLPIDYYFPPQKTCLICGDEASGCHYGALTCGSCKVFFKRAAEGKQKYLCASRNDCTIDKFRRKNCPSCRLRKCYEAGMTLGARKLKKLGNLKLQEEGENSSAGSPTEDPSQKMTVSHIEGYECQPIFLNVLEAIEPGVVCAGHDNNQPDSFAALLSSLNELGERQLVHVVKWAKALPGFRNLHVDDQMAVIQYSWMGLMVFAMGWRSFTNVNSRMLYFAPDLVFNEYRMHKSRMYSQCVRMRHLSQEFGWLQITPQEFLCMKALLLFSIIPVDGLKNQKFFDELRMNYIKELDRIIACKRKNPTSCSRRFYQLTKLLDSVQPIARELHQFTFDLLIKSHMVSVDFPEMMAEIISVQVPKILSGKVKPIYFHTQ
The assay can be described thus: Displacement of [3H]mibolerone from rat androgen receptor.

pIC50, pKi: −log10 of the molar value. Active and inactive are the calls of the source. The rule behind the calls is not given here. A value given as a limit tells only on which side of the number the result lay.

D(2) dopamine receptor (Homo sapiens), sequence (P14416 whole entry): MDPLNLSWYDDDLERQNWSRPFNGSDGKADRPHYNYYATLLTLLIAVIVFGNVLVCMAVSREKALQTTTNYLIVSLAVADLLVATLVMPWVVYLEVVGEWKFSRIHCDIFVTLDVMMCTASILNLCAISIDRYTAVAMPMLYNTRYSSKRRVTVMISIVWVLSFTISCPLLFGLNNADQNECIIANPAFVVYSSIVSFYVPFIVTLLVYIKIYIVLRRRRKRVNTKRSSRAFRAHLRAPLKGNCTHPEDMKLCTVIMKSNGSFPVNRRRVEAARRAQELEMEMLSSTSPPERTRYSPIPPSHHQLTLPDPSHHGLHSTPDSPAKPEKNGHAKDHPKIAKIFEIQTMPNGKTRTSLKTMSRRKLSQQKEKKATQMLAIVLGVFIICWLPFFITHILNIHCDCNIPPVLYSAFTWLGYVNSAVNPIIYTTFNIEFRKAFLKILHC
5-hydroxytryptamine receptor 2A (Homo sapiens), sequence (P28223 whole entry): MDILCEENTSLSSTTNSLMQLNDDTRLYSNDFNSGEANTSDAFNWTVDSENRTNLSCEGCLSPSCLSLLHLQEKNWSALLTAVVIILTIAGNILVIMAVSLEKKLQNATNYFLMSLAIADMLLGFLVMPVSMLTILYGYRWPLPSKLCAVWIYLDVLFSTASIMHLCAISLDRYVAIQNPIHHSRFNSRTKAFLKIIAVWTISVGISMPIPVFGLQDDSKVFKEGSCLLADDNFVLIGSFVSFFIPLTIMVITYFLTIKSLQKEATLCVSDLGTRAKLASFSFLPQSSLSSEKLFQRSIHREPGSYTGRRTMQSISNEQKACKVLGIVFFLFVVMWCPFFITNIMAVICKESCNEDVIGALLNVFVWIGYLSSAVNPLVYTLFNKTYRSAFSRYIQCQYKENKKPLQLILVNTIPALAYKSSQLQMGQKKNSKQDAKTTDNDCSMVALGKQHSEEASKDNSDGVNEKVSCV

`O=C(CN1c2ccccc2Sc2ccc(C(F)(F)F)cc21)c1cccc2ccccc12`: the outcome in assay [1], in [5], in assay [6] and in assay [7] was inactive. Moreover, the result in [2] was Active. The Activity is above 80% in assay [3] and above 90% in assay [4]. Further, the pIC50 in [8] (read-out: IC50) is 6.60. Besides, the IC50 in [8] (read-out: Log IC50 (converted)) was 251 nM.

As to `N#Cc1ccc2c(c1)N(CCCN1CCC(O)CC1)c1ccccc1S2` [PERICIAZINE], in assay [9], the pKi was 5.52.

What is called pIC50 is −log10 of the IC50, conventionally taken in molar units. What is called IC50 is the concentration needed to halve the response being measured. One may read the pKi as the negative decadic logarithm of the Ki, by convention in mol/L.
